Where a name gives a salt, the structure may show the parent alone.

The record followed here is patent publication US4405642A, “Method for treatment or prophylaxis of cardiac disorders” (American Hospital Supply Corporation, priority 1980, dated 1983).

The nature of data set [1]: Disappearance in vitro in dog whole blood. It counts as in vitro ADME. As to conditions: 50 μg test compound, 37° C., read-out: T1/2 Dog Whole Blood. The method, then:
(§1) The rate of disappearance of a compound is expressed as the half-life (T1/2), which is the time period in which one half of the initial amount of compound tested disappears. […] The samples were incubated in a Dubnoff shaking metabolic incubator for 2.5, 5.0, 10.0, 20.0, 30.0 and 60.0 minutes at 37° C. At the designated time periods, the test mixtures were removed from the incubator and transferred to a 0° C. ice bath. Acetonitrile (2 ml) was immediately added and the mixtures were mixed to stop enzymatic hydrolysis. Zero time samples were prepared by adding 2 ml. of acetonitrile to denature the proteins prior to addition of the test compounds. After centrifugation to sediment denatured proteins, 2 ml. of the supernatant was removed and analyzed by high pressure liquid chromatography, using a mobile phase of 60% acetonitrile/40% 0.05 m sodium phosphate buffer (pH 6.6), a U.V. detector and Waters® μ Bondapak Phenyl column. The half life of each test compound was determined graphically by plotting the decrease in concentration as a function of time.

Data set [2] relates to heart rate response to isoproterenol. Nature of the data set: Duration of beta-blockade in vivo, anesthetized dogs, 3-hour infusion. Particulars: dog; for 80% Recovery Time: after termination of 3-hour infusion; for % I (Percent inhibition of heart rate response to isoproterenol): end of 3-hour infusion, bolus isoproterenol 0.5 μg/kg. The method, then:
(§2) The duration of beta-blockade was determined in vivo using pentobarbitalanesthetized dogs instrumented for measurement of heart rate using a Beckman® cardiotachometer triggered electronically by a phasic aortic blood pressure signal. Both vagus nerves were severed in the cervical region and the animals were mechanically ventilated. Two experimental designs were used. The first employed a 40-minute infusion of test compound and the second used a 3-hour infusion of test compound. In the 40-minute model, isoproterenol was infused into a foreleg vein at the rate of 0.5 μg/kg/min to induce a beta-receptor mediated tachycardia. Various doses of test compound where then infused into a femoral vein over a period of 40 minutes. This infusion was then terminated and recovery from blockade was quantitated. […] This cumulative dose is expressed as mg/kg and is an indication of potency. The time period required for 80% recovery of heart rate for each dose of test drug was also measured to quantitate duration of action. […] Test compounds were dissolved in 0.9% NaCl and infused at a rate of 0.05 ml/kg/min or less. In the 3-hour infusion model, bolus doses of isoproterenol (0.5 μg/kg) were used to assess the degree of beta-blockade and recovery from beta-blockade after termination of the infusion. The doses were spaced at 10-minute intervals and were given before, during and following the infusion of test compounds. The infusion rate was adjusted so that at the end of the 3-hour infusion period the degree of isoproterenol inhibition averaged about 50% of control.

Data set [3] is described as follows: Disappearance in vitro in dog liver homogenate. It counts as in vitro ADME. Particulars: 50 μg test compound, 33% (w/v) liver homogenate, 37° C., read-out: T1/2 Dog Liver Homogenate. The method, then:
as §1

For data set [4], the target named is T1, β-adrenergic receptors (guinea pig tracheal strips) (Cavia porcellus, UniProt Q8K4Z4).
T1 construct: from tissue; host or cells: guinea pig trachea (isolated spiral strips)
T1 sequence (Q8K4Z4 whole entry): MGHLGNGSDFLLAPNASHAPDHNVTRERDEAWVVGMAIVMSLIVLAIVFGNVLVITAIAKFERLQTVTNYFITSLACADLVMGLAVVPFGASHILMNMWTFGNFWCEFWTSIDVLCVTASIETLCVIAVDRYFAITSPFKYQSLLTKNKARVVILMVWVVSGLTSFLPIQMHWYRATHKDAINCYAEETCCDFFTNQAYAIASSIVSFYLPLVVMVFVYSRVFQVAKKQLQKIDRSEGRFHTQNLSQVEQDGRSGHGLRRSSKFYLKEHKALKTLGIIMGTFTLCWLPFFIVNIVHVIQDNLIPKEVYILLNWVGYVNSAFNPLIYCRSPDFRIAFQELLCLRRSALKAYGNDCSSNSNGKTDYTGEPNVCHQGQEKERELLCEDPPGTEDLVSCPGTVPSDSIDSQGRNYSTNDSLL
Nature of the data set: β-blocking activity in vitro, guinea pig tracheal strips (tension response to isoproterenol). The class given is cell-based. Particulars: vs isoproterenol, 60 minute incubation, 37° C.; for Kb: read-out: pA2 Trachea (converted). As to the method: (§3) Each tissue was suspended between a fixed glass rod and a Statham® Universal Transducer connected to a Beckman® recorder. Atria were allowed to beat spontaneously under a loading tension of approximately 0.5 gm. Instrinsic depressant or stimulant activity was determined for each compound by progressively increasing concentrations in the tissue baths at 60-minute intervals. Tissues were not washed between increments. The maximum concentration showing little or no cardiodepressant activity was chosen for blockade experiments. Changes in rate in response to isoproterenol were measured in the absence and presence of test compounds. Spiral strips of guinea pig trachea were suspended under 5 gm resting tension and incubated with phentolamine, tropolone and cocaine. Active tension was generated by addition of carbachol (3.0×10^-7 M) and decreases in tension in response to isoproterenol were quantitated. Cumulative concentration-response curves were produced with isoproterenol both before and after 60 minute incubation of test compounds with atria and trachea. The blocking potency of test compounds was estimated by computing pA2 values (-log […]) by the method of Furchgott, The Pharmacological Differentiation of Adrenergic Receptors, Ann. […] The degree of cardioselectivity was estimated from the ratio, KB trachea/KB atria (10^(pA.sbsp.2^atria-pA.sbsp.2^trachea)). A ratio greater than one indicates cardioselectivity. Test drugs were dissolved in distilled water and added to the bath (30 ml) in a volume of 10 or 100 μl.

The target in data set [5] is T2, β-adrenergic receptors (guinea pig right atria) (Cavia porcellus, UniProt H0W3H1).
T2 construct: Atria were allowed to beat spontaneously under a loading tension; from tissue; host or cells: guinea pig right atria (isolated, spontaneously beating)
T2 sequence (H0W3H1 1-470): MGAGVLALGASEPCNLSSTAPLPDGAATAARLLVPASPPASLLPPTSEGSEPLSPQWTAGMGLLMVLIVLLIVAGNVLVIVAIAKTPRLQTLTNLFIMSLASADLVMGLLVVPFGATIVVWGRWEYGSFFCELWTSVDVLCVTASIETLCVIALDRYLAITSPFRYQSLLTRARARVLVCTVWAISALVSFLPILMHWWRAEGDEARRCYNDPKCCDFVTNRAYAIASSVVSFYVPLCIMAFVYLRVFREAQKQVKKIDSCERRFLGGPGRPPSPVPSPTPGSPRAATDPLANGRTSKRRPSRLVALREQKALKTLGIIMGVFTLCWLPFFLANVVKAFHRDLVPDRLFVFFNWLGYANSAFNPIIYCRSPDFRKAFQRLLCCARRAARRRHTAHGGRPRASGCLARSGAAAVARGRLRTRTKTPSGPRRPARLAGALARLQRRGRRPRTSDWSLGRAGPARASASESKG
The data set is described as follows: β-blocking activity in vitro, guinea pig right atria (rate response to isoproterenol). The class given is cell-based. As to conditions: vs isoproterenol, guinea pig right atria, 60 minute incubation, 37° C.; for Kb: read-out: pA2 Atria (converted). As to the method:
as §3

A short description of data set [6]: Disappearance in vitro in human whole blood. The class given is in vitro ADME. As to conditions: 50 μg test compound, 37° C., read-out: T1/2 Human Whole Blood. The method, then: as §1
The subject of data set [7] is heart rate response to isoproterenol. Nature of the data set: Duration of beta-blockade in vivo, anesthetized dogs, 40-minute infusion. More on the design: species or system dog. As to conditions: for Recovery Times 50%: 50% recovery of heart rate after 40-minute infusion; for Recovery Times 50% / Recovery Times 80% / Recovery Times 100%: normalized to 50% inhibition, dog; for Recovery Times 80%: 80% recovery of heart rate after 40-minute infusion; for Recovery Times 100%: 100% recovery of heart rate after 40-minute infusion; for ED50: Canis lupus familiaris, iv, 40 min, read-out: Potency. As to the method: as §2

Data set [8] concerns β-adrenergic receptors (guinea pig right atria). The data set is described as follows: β-blocking activity in vitro, guinea pig right atria (rate response to isoproterenol). It counts as cell-based. Particulars: ratio from pA2 atria and trachea; greater than one indicates cardioselectivity. The method, then:
as §3

In the case of `CC(C)NCC(O)COC(=O)c1ccccc1` (stereo not drawn) [Example VI, [3-(Isopropylamino)-2-hydroxy]propyl Benzoate Hydrochloride], the half-life in data set [1] was 6.8 ± 2 min. Moreover, in data set [2], the “80% Recovery Time” value stood at 26 ± 8 min and the “% I (Percent inhibition of heart rate response to isoproterenol)” value stood at 63 ± 8%. Further, the half-life in data set [3] was 8 ± 3.5 min. In addition, the “pA2 Trachea” value in data set [4] is given as 7.2. In addition, the “pA2 Atria” value in data set [5] is given as 6.3. For the same compound, the half-life in data set [6] worked out at 2.3 ± 0.6 min. Also, in data set [7], the “Recovery Times 50%” value was found to be 7 ± 2 min, the “Recovery Times 80%” value turned out to be 14 ± 3 min, the “Recovery Times 100%” value turned out to be 21 ± 3 min and the ED50 came out at 3.4 ± 1.1 mg/kg.

Take `COc1ccc(CCNCC(O)COC(=O)c2ccccc2)cc1OC` (stereo not drawn) [Example VII]: in data set [2], the “80% Recovery Time” value is listed as 29 ± 5 min and the “% I (Percent inhibition of heart rate response to isoproterenol)” value is recorded as 45 ± 2%. The Kb in data set [4] was 0.501 µM. The “Cardioselectivity KB (Trachea)/KB (Atria)” value (“Cardioselectivity KB” for short) in data set [8] amounted to 5. Moreover, the Kb in data set [5] is 0.1 µM.

In the case of `CC(C)NCC(O)COC(=O)c1ccccc1Cl` (stereo not drawn) [Example XII, [3-(Isopropylamino)-2-hydroxy]propyl 2-chlorobenzoate hydrochloride], the half-life in data set [1] came out at 28 ± 15 min. For the same compound, the half-life in data set [3] was determined as 12 ± 4 min. In data set [6], the half-life came out at 1.7 ± 0.6 min. Moreover, in data set [7], the “Recovery Times 50%” value came out at 19 min, the “Recovery Times 80%” value came to 30 min, the “Recovery Times 100%” value was found to be 51 min and the ED50 amounted to 1.75 mg/kg.

Consider `COc1ccc(CCNCC(O)COC(=O)c2ccc(C)cc2)cc1OC` (stereo not drawn) [Example XI], for which the Kb in data set [4] is 1 µM. The “Cardioselectivity KB” value in data set [8] is on record as 4. Besides, the Kb in data set [5] is 0.251 µM. Besides, in data set [7], the “Recovery Times 50%” value was determined as 8 ± 1 min, the “Recovery Times 80%” value came out at 16 ± 2 min, the “Recovery Times 100%” value stood at 25 ± 3 min and the ED50 came to 17.2 ± 5.8 mg/kg.

For the compound `Cc1ccc(C(=O)OCC(O)CNC(C)C)cc1` (stereo not drawn) [Example X], the half-life in data set [1] turned out to be 67 ± 24 min. Also, the half-life in data set [3] amounted to 10 ± 4 min. In addition, the Kb in data set [4] is 0.158 µM. Also, the “Cardioselectivity KB” value in data set [8] came to 1. Moreover, the Kb in data set [5] is 0.158 µM. The half-life in data set [6] amounted to 6 min. In data set [7], the “Recovery Times 50%” value is 11.0 min, the “Recovery Times 80%” value is 20 ± 2 min, the “Recovery Times 100%” value is 30.0 min and the ED50 was 3.1 ± 0.3 mg/kg.

Consider `COc1ccc(CCNCC(O)COC(=O)c2ccccc2Cl)cc1OC` (stereo not drawn) [XIII], for which the Kb in data set [4] is 0.0316 µM. For the same compound, the “Cardioselectivity KB” value in data set [8] is 2. The Kb in data set [5] is 0.0158 µM. For the same compound, in data set [7], the “Recovery Times 50%” value worked out at 7 min, the “Recovery Times 80%” value was 12 ± 1 min, the “Recovery Times 100%” value is 24 min and the ED50 was determined as 2 ± 0.6 mg/kg.

Regarding `Cc1ccccc1C(=O)OCC(O)CNC(C)C` (stereo not drawn) [XVII], the half-life in data set [1] is over 180 min; in data set [3], 147 ± 69 min; in data set [6], over 180 min. Besides, the “80% Recovery Time” value in data set [2] is on record as over 60 min. The “% I (Percent inhibition of heart rate response to isoproterenol)” value in data set [2] is on record as 83%.

On to `COc1ccc(C(=O)OCC(O)CNC(C)C)cc1` (stereo not drawn) [XXIII], for which the half-life in data set [1] came to 150 ± 30 min; in data set [3], 37 ± 20 min; in data set [6], 55 ± 5 min. For the same compound, in data set [2], the “80% Recovery Time” value is over 60 min. Besides, the “% I (Percent inhibition of heart rate response to isoproterenol)” value in data set [2] was 67 ± 6%. Moreover, the figures for the Kb in data set [4] and in data set [5] were 0.501 µM and 1 µM, respectively.

For `CC(C)(C)NCC(O)COC(=O)c1ccccc1F` (stereo not drawn) [XXXIX], the half-life is 6 ± 2 min in data set [1], 17 ± 7 min in data set [3] and 1.4 ± 1 min in data set [6]. Moreover, the “80% Recovery Time” value in data set [2] is recorded as 17 ± 3 min. Also, the “% I (Percent inhibition of heart rate response to isoproterenol)” value in data set [2] was 60 ± 2%. Also, the Kb in data set [4] is 0.01 µM; in data set [5], 0.158 µM.

As to `CC(C)(C)NCC(O)COC(=O)c1ccccc1Cl` (stereo not drawn) [XXXVIII], the figures for the half-life in data set [1], in data set [3] and in data set [6] were 30 ± 2 min, 68 ± 4 min and 6 ± 2 min, respectively. Moreover, the “% I (Percent inhibition of heart rate response to isoproterenol)” value in data set [2] came to 67%.

In the case of `COc1ccc(CCNCC(O)COC(=O)c2ccc(F)cc2)cc1OC` (stereo not drawn) [XXXV], in data set [2], the “80% Recovery Time” value is on record as over 60 min and the “% I (Percent inhibition of heart rate response to isoproterenol)” value worked out at 59%. The Kb in data set [4] is 0.2 µM. Besides, the “Cardioselectivity KB” value in data set [8] was determined as 2. Besides, the Kb in data set [5] is 0.1 µM.
